Reference: patent EP0516660B1, “USE OF S-ADENOSYL METHIONINE AS AN AGENT AGAINST VIRAL INFECTIONS BY RETROVIRUSES” (Grundmann, Ewald, Dr., priority 1990, dated 1991)

Test system: HIV
Test: HIV-infected lymphocyte cultures, virus amount determined as radioactive reverse transcriptase in the culture supernatant
Type: cell-based
Conditions: for Reverse Transkriptase: HIV-Zahl in Lymphocyten-Kultur
Protocol: Lymphocyten-Kulturen aus der Nabelschnur von Neugeborenen (H. Rübsamen-Waigmann et al. "Isolation of Variants of Lymphocytopathic Retroviruses from the Peripheral Blood and Cerebrospinal Fluid of Patients with ABC or AIDS", J. Medical Virology 19, S. 335 bis 344; 1986) wurden mit Viren, die dem Blut von AIDS-Kranken entnommen waren, geimpft. Dazu werden zu 5 ml der Lymphocyten-Kultur (1 · 10⁶ Zellen pro ml) 0,5 ml einer HIV-Suspension gegeben, die 10⁴ bis 10⁵ infektiöse Partikel pro ml enthält. Die Kulturmedien werden mit unterschiedlichen Mengen S-Adenosyl-L-methionintosylat-bis-Sulfat versetzt. Ein Drittel bis zur Hälfte des jeweiligen Kulturmediums werden nach 1 bis 2 Tagen durch frisches Kulturmedium gleicher Zusammensetzung ersetzt.
Retroviren zeichnen sich dadurch aus, daß sie ausschließlich RNA (Ribonukleinsäure) als Nukleinsäure enthalten und eine spezielle Polymerase, nämlich Reverse Transkriptase benötigen, die nach der Infektion in der Wirtszelle aus der Virus-RNA eine in die DNA der Wirtszelle einbaubare Virus-DNA bildet, vgl. H. Rübsamen "Biochemie der Tumorviren", Chemie in unserer Zeit 17, S. 169 bis 180; 1983. Daraus ergibt sich eine Nachweismethode für Retroviren, die auf der für diese typischen Reversen Transkriptase und dem durch diese in die DNA eingebauten Tritium-markierten Thymidin beruht, vgl. H. Rübsamen et al., l.c.:
In Abhängigkeit vom positiven Nachweis der Infektion durch mikroskopische Kontrolle werden nach 3 bis 5 Tagen jeweils 5 ml der überstehenden Kulturflüssigkeit durch Zentrifugieren (1o min bei 10.000 g) geklärt. Die so geklärte Probe wird bei 100.000 g/50 min zentrifugiert und der Rückstand in 60 µl eines Tris-Puffers lysiert (10 mM Tris, 0,2 % Triton X-100, 1 mM EDTA, 5 mM Dithiothreitol, 60 mM KCl, pH 7,3).
Jeweils 30 µl des Lysats werden mit 30 µl Templat (0,01 mg/ml Poly(rA)·oligo (dT) (Pharmacia, Uppsala, Schweden) in 5 mM MgCl₂, 2,4 mM Dithiothreitol, 60 mM KCl und 0,0034 mM Methyl-[³H]thymidin-5'-Triphosphat; 48 Ci/mM, Amersham, Bucks; England) 90 min bei 37° C inkubiert. Die Reaktion wird durch Zugabe von 10-proz. Laurylsarkosin bis zu einer Laurylsarkosin-Endkonzentration von 1,4 % beendet. Die freie und in das RNA/DNA-Hybrid eingebaute Radioaktivität von 10 µl des mit Laurylsarkosin versetzten Inkubats werden dann in üblicher Weise an einem DEAE-Filter getrennt, das nach dem Waschen und Trocknen in eine Szintillationsflüssigkeit gegeben wird. Die Radioaktivität wird dann mit einem Szintillationszähler gemessen. Die eingebaute Radioaktivität (Zerfälle pro min pro 5 ml) nach Abzug des Blindwertes ist dann ein Maß für die in der überstehenden Kulturflüssigkeit enthaltene Reverse Transkriptase und damit für die Menge an Retroviren, die in der Kultur enthalten sind.

Compound: C[S+](CC[C@H](N)C(=O)O)C[C@H]1O[C@@H](n2cnc3c(N)ncnc32)[C@H](O)[C@@H]1O (stereo partly drawn) [Adenosylmethionin, S-Adenosyl-L-methionintosylat-bis-Sulfat]
- Reverse Transkriptase (Adenosylmethionin 4 µg/ml): 114 000 counts/min und 5 ml
- Reverse Transkriptase (Adenosylmethionin 40 µg/ml): 86 000 counts/min und 5 ml
- Reverse Transkriptase (Adenosylmethionin 200 µg/ml): 73 000 counts/min und 5 ml
- Reverse Transkriptase (Adenosylmethionin 400 µg/ml): 60 000 counts/min und 5 ml
- Reverse Transkriptase (Adenosylmethionin 1000 µg/ml): 29 000 counts/min und 5 ml
- IC50 (Human immunodeficiency virus 1, Lymphocyte, read-out: Halbwertskonzentration, bei der die Retrovirenkonzentration auf die Hälfte zurückgeht): 100 to 200 µg/mL
